# Values joined by “and” are separate entries in the source; they are usually repeats but may differ in a detail not shown here. Equal values may be shown once. Inconclusive results are not listed. Active and inactive are the calls of the source.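 The calls were made as follows: active = fitted half-maximal concentration of signal decrease at or below twice the sample's top tested concentration; inconclusive = flat curve between -70 and -30 percent, or poor fit; inactive = flat within 30 percent, signal rise, or potency above limit.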
# Biological target: T. gondii ME49Luc in IFN-y HeLa, luciferase, 72 h
# Assay: T. gondii growth inhibition with IFN-gamma, dose response, cell-based, ME49Luc, HeLa, luciferase, 72 h (AID 1259418)
row,SMILES,AC50
1,Cc1cc(C)cc(S(=O)(=O)N2CCC[C@@H]2C(=O)NCCc2csc(-c3ccccc3)n2)c1,13.5 µM
2,O=S(=O)(c1ccccc1)N1CCc2c([nH]c3ccccc23)C1c1ccc(F)c(F)c1 (stereo unspecified),13.9 µM
3,Cc1ccc(-c2coc(-c3ccc(NS(=O)(=O)c4ccc(CC(C)C)cc4)cc3)n2)c(C)c1,> 39 µM (inactive)
4,COc1ccc(-n2nnc3c(N4CCN(C(=O)C(=O)c5c[nH]c6ccccc56)CC4)ncnc32)cc1,20.3 µM
5,O=C(CC1Nc2c3ccccc3nc(=S)n2C1=O)NCc1ccc2c(c1)OCO2 (stereo unspecified),> 39 µM (inactive)
6,COc1ccc(-c2nc(CN(c3ccccc3OC)S(=O)(=O)c3ccc(C)cc3)c(C)o2)cc1,5.3 µM
7,C[C@H](O[C@H]1OCCN(Cc2n[nH]c(=O)[nH]2)[C@H]1c1ccc(F)cc1)c1cc(C(F)(F)F)cc(C(F)(F)F)c1,15.4 µM
8,COc1ccc(OC)c(S(=O)(=O)N2CCc3c([nH]c4ccccc34)C2c2cccc(F)c2)c1 (stereo unspecified),> 39 µM (inactive)
9,OC[C@@H]1[C@@H](c2ccc(-c3cccc(F)c3)cc2)[C@@H]2CN(Cc3cncnc3)CCCCN12,36.1 µM
10,CN1C(=O)CCc2cc(NC(=O)Cc3ccc(Cl)cc3)ccc21,23.8 µM
11,COc1cccc(C(=O)Nc2ccc3c(c2)C(=O)N(C)[C@@H]2CC[C@H](CC(=O)NCc4ccc(F)cc4)O[C@@H]2CO3)c1,9.13 µM
12,CCCC#Cc1ccc([C@@H]2[C@H]3CN(C(=O)Nc4cccc(F)c4)CC(=O)N3[C@H]2CO)cc1,17.4 µM
13,COc1cccc(C(=O)Nc2ccc3c(c2)C(=O)N(C)[C@@H]2CC[C@H](CC(=O)N[C@H](C)c4ccccc4)O[C@@H]2CO3)c1,19.4 µM
14,COc1ccc(-c2nc(NCc3cccnc3)c3ccccc3n2)cc1,21.7 µM
15,COc1ccc(-c2nc(CN(c3ccccc3)S(=O)(=O)c3cccs3)c(C)o2)cc1OC,6.84 µM
16,C/C=C/c1ccc([C@H]2[C@@H](CO)N3CCCCN(S(=O)(=O)c4ccc(OC)cc4)C[C@H]23)cc1,15.7 µM
17,O=C(CCC1N=C2c3ccccc3N=C(SCc3ccc(F)cc3)N2C1=O)NCCc1ccccc1 (stereo unspecified),37.8 µM
18,N#Cc1ccc(-c2ccc(C3[C@@H]4CN(C(=O)C5CCCCC5)C[C@H]3N4)cc2)cc1 (stereo partly specified),17.8 µM and 28.4 µM and 27.6 µM
19,CCN(CC)c1nc(-c2ccc(OC)cc2)nc2ccccc12,15.7 µM
20,O=C(NCCc1csc(-c2ccccc2)n1)C1CCN(C(=O)c2ccco2)CC1,> 39 µM (inactive)
21,CCOc1ccc(-c2nc(CN(c3cccc(OC)c3)S(=O)(=O)c3ccccc3C)c(C)o2)cc1,34.5 µM
22,CC(C)CC#Cc1ccc([C@@H]2[C@@H](CO)N3C(=O)CN(C(=O)c4cccc(F)c4)C[C@@H]23)cc1,15 µM and 9.46 µM
23,CC(C)CNc1nc2c(cc1C(=O)NCC1CC1)CCN(c1ccncn1)CC2,19 µM

row,SMILES,AC50
1,O=C(Nc1ccc(F)cc1)N1CC(=O)N2[C@H](C1)[C@@H](c1ccc(-c3cccc(F)c3)cc1)[C@@H]2CO,8.5 µM and 5.04 µM
2,CSc1cccc(NC(=O)CN2CCC3(CC2)N=C(c2cccc(Cl)c2)C(=O)N3)c1,23.8 µM
3,COc1ccc(-c2nc(C)c(-c3ccc(SCc4cc(C)ccc4C)nn3)s2)cc1,> 39 µM (inactive)
4,COc1cc(NC(=O)Nc2ccc(-c3nc(-c4cc(C)ccc4C)co3)cc2)cc(OC)c1,9.46 µM
5,C/C=C/c1ccc([C@@H]2[C@@H](CO)N3CCCCN(CCC(F)(F)F)C[C@@H]23)cc1,17.4 µM
6,COc1ccc(-c2nc(NCCN3CCCCC3C)c3ccccc3n2)cc1 (stereo unspecified),13.4 µM
7,Fc1ccc(Nc2nc(SCc3ccc(Cl)cc3)nc3ccccc23)cc1F,17.3 µM
8,O=C(c1ccc(F)cc1)N1CC(=O)N2[C@H](CO)[C@H](c3ccc(C#CCC4CCCC4)cc3)[C@@H]2C1,14.4 µM and 12 µM
9,C1=CC[C@H]2CN(c3ncnc4[nH]ccc34)C[C@H]2C1,13.1 µM
10,Cc1nc(CCNC(=O)C2CCN(S(=O)(=O)c3ccc(C(C)(C)C)cc3)CC2)cs1,31.4 µM
11,Cc1ccc(-c2nc(CN(c3ccccc3)S(=O)(=O)c3ccccc3)c(C)o2)cc1,10.3 µM
12,Cc1ccc2c(c1)c(Cn1cc(-c3sccc3C)nn1)nn2C,20.2 µM and 28.7 µM
13,CCOc1ccccc1N(Cc1nc(-c2ccccc2)oc1C)S(=O)(=O)c1cccs1,7.76 µM
14,C[C@H](CO)N1C[C@H](C)[C@H](CN(C)Cc2ccc(Cl)c(Cl)c2)Oc2c(NS(=O)(=O)c3ccc(F)cc3)cccc2C1=O,20.9 µM
15,O=C(CCC1N=C2c3ccccc3N=C(SCc3ccccc3F)N2C1=O)NCc1cccs1 (stereo unspecified),22.4 µM
16,COc1ccc(N(Cc2nc(-c3ccc(C)cc3)oc2C)S(=O)(=O)c2ccccc2C)cc1,31.9 µM
17,Cc1ccc(-c2coc(-c3ccc(NC(=O)Nc4cc(F)ccc4F)cc3)n2)cc1,27.7 µM
18,COCC1CN(C(=O)c2ccccc2F)Cc2cnn(CC3CC3)c21 (stereo unspecified),35.8 µM
19,CC[C@H]1CN2CCC1C[C@@H]2[C@H](O)c1ccnc2ccc(OC)cc12 (stereo partly specified),20 µM
20,COc1ccc(-c2ccc([C@H]3[C@H]4CN(Cc5ccccc5)CC(=O)N4[C@H]3CO)cc2)cc1,21 µM
21,COc1ccc(-c2ccc3c(c2)[C@@H]2[C@@H](CCN2C(=O)c2cccc(F)c2)[C@H](CO)N3)cc1,26.9 µM
22,COc1ccccc1C(=O)Nc1ccc(-c2nc(-c3ccc(C)cc3C)co2)cc1,9.34 µM and 18.2 µM
23,O=C(NCCc1csc(-c2ccccc2)n1)C1CCN(C(=O)c2ccccc2Br)CC1,24.6 µM
